Experimental data taken from patent publication US6624288B1 (priority 1997, dated 2003).

Tested on: Isolated medial neurons from Aplysia oculifera pleuropedal ganglia
Assay type: cell-based

NC1=N[C@H](O)[C@H]2[C@H]3O[C@]4(O)O[C@@H]([C@@H](O)[C@@]2(N1)[C@@H]4O)[C@]3(O)CO [tetrodotoxin]
effect on TxI-induced spike prolongation: reduced the TxI-induced spike prolongation
